# US20240423945A1, “USE OF FERROPTOSIS INHIBITOR IN PREPARATION OF DRUG FOR TREATING GASTRITIS” (CHILDREN'S HOSPITAL OF CHONGQING MEDICAL UNIVERSITY, priority 2022, published 2024)
# Columns and labels:
# [1] = test system: GES-1-134 cell (GRIM-19-knockout human gastric mucosal epithelial cell GES-1); experiment: CCK-8 proliferation viability of GES-1-134 cell intervened with ferrostatin-1; format: cell-based; conditions: CCK-8, FIG. 8
# Protocol: A CCK-8 kit (Solarbio) was used to analyze the proliferation viability changes of GES-1-NC and GES-1-134 cells, and a specific process was as follows: • (1) The cells were inoculated into a 96-well plate at 5,000 cells/well. • (2) The cells were cultivated at 37° C. and 5% CO2 for 24 h, 48 h, and 72 h. • (3) 10 μL of a CCK-8 solution was added to each well during detection. • (4) The plate was incubated in an incubator for 1 h. • (5) A microplate reader was used to determine the absorbance at 450 nm.
# A CCK-8 kit was used to analyze a change of proliferation viability of the GES-1-134 cell intervened with the ferroptosis inhibitor ferrostatin-1. After the GES-1-134 cell was intervened with the ferroptosis inhibitor ferrostatin-1, the proliferation ability was increased and the viability was recovered.
# [2] = test system: GIF, GSII, and Mist1 positive cells in GRIM-19−/− mouse gastric mucosal tissue; experiment: GIF/GSII/Mist1 immunofluorescence colocalization analysis of SPEM markers in GRIM-19−/− mouse gastric mucosal tissue; format: in vivo; conditions: intraperitoneally injected, compared with the PBS group, FIG. 11B
# Protocol: After a mouse was intraperitoneally injected with the ferroptosis inhibitor ferrostatin-1, an immunofluorescence technique was used to analyze the GIF, GSII, and Mist1 positive colocalization expression of SPEM markers in a gastric mucosal tissue, and a specific process was as follows: • (1) embedding a tissue with OCT; • (2) sectioning; • (3) fixing with 4% PFA; • (4) blocking with serum; • (5) incubating with a primary antibody overnight at 4° C.; • (6) rinsing with PBS 3 times; • (7) incubating with a secondary antibody at room temperature for 2 h; • (8) rinsing with PBS 3 times; • (9) counter-staining with DAPI for 10 min; • (10) rinsing with PBS 3 times; and • (11) mounting with an anti-fluorescence attenuation agent.
# [3] = test system: ferroptosis marker proteins (COX2, GPX4, FTH1, and TFR) in the GRIM-19−/− mouse gastric mucosal tissue; experiment: WB of ferroptosis marker proteins in GRIM-19−/− mouse gastric mucosal tissue intervened with ferrostatin-1; format: in vivo; conditions: ferrostatin-1 injected, FIG. 9B
# Protocol: (§1) 4. The expression of GRIM-19 was analyzed by WB, and a specific process was as follows: • (1) The cells were subjected to lysis with an RIPA lysis buffer (Beyotime) on ice for 30 min or more. • (2) A resulting lysate was centrifuged at 12,000 rpm for 10 min, and a resulting supernatant was collected. • (3) A corresponding volume of a sodium dodecyl sulfate-polyacrylamide gel electrophoresis (SDS-PAGE) protein loading buffer was added, and a resulting mixture was incubated in a metal bath at 100° C. for 10 min. • (4) SDS-PAGE was conducted. • (5) Blocking was conducted at room temperature for 30 min. • (6) A primary antibody was added, and a resulting mixture was incubated overnight at 4° C. on a shaker. • (7) A membrane was washed with TBST three times for 10 min each time. • (8) A secondary antibody was added, and a resulting mixture was incubated for 1 h at room temperature on a shaker. • (9) A membrane was washed with TBST three times for 10 min each time. • (10) Development was conducted.
# (§2) WB was used to analyze the expression of ferroptosis markers in the GES-1-134 cell and the GRIM-19^−/− mouse gastric mucosal tissue that each were intervened with ferrostatin-1.
# [4] = test system: SPEM marker proteins TFF2, Mist1, Clusterin-1, HE4, and MUC6 in the GRIM-19−/− mouse gastric mucosal tissue; experiment: WB of SPEM markers in GRIM-19−/− mouse gastric mucosal tissue intervened with ferrostatin-1; format: in vivo; conditions: intraperitoneally injected, compared with the PBS injection control, FIG. 11A
# Protocol: as §1
# WB was used to detect the expression of SPEM markers in the gastric mucosal tissue of the GRIM-19^−/− mouse intraperitoneally injected with the ferroptosis inhibitor ferrostatin-1.
# [5] = test system: ferroptosis marker proteins (COX2, GPX4, FTH1, and TFR) in the GES-1-134 cell; experiment: WB of ferroptosis marker proteins in GES-1-134 cell treated with ferrostatin-1; format: cell-based, Human; conditions: ferrostatin-1 0, 5, 10 μM, FIG. 9A
# Protocol: as §1, §2
# [6] = test system: inflammatory factors in the GRIM-19−/− mouse gastric mucosal tissue; experiment: WB of inflammatory factors in GRIM-19−/− mouse gastric mucosal tissue intervened with ferrostatin-1; format: in vivo
# Protocol: as §1
# (§3) WB was used to detect the expression of inflammatory factors in the GES-1-134 cell and GRIM-19^−/− mouse after being intervened with the ferroptosis inhibitor ferrostatin-1.
# [7] = test system: inflammatory factors IL-6, TNF-α, VEGF, GM-CSF, IL-1β, and IL-33 in the GES-1-134 cell; experiment: WB of inflammatory factors in GES-1-134 cell intervened with ferrostatin-1; format: cell-based, Human; conditions: GES-1-134 cell in vitro, FIG. 10A
# Protocol: as §1, §3
# [8] = compared with the PBS injection control, WB, FIG. 10B
structure (smiles),measurement,setting,value
CCOC(=O)c1ccc(NC2CCCCC2)c(N)c1 [ferrostatin-1],proliferation ability,[1],increased
same,viability,[1],recovered
same,number of GIF+/GSII+ double-positive cells,[2],decreased
same,number of GIF+/GSII+/Mist1+ triple-positive cells,[2],decreased
same,number of GIF+/Mist1+ double-positive cells,[2],decreased
same,"number of positive cells (GIF+, GSII+, Mist1+)",[2],decreased significantly
same,expression level of COX-2,[3],showed the same change trend
same,expression level of FTH1,[3],showed the same change trend
same,expression level of GPX4,[3],showed the same change trend
same,expression level of TFR,[3],showed the same change trend
same,expression of Clusterin-1,[4],significantly weakened
same,expression of HE4,[4],significantly weakened
same,expression of MUC6,[4],significantly weakened
same,expression of Mist1,[4],significantly weakened
same,expression of TFF2,[4],significantly weakened
same,expression level of COX-2,[5],decreased
same,expression level of FTH1,[5],increased
same,expression level of GPX4,[5],increased
same,expression level of TFR,[5],decreased
same,expression level of IL-6,[6]; [8],significantly reduced
same,expression level of TNF-α,[6]; [8],significantly reduced
same,expression of GM-CSF,[6]; in vivo injection,effectively reduce
same,expression of IL-1β,[6]; in vivo injection,effectively reduce
same,expression of IL-33,[6]; in vivo injection,effectively reduce
same,expression of VEGF,[6]; in vivo injection,effectively reduce
same,expression level of GM-CSF,[7],significantly reduced
same,expression level of IL-1β,[7],significantly reduced
same,expression level of IL-6,[7],significantly reduced
same,expression level of IL-33,[7],significantly reduced
same,expression level of TNF-α,[7],significantly reduced
same,expression level of VEGF,[7],significantly reduced
